Data published in patent US20260248842A1, “METHOD FOR TRANSIENT ACIDIFICATION OF WOUNDS” (SePRO Corporation, priority 2023, published 2026).

Assay: Early studies: permeation and transient acidification of pig skin
Details: same amounts of ammonia equivalents and sulfuric acid in comparison solutions

N.N.O=S(=O)(O)O [ammonium sulfate]
permeation of pig skin and transient acidification: neither of the acidified ammonium salts solutions permeated pig skin
